# Patent publication US10563197B2, “Use of a combination of Dbait molecule and PARP inhibitors to treat cancer” (INSTITUT CURIE, priority 2015, dated 2020)
# How the values were obtained:
# Type in all cases: cell-based, human
# 3 BC cell lines = assay: Combined treatment survival in BC cell lines (FIG. 6, 7, 12); conditions: FIG. 7
# Description: Efficacy of AsiDNA (4. 8 μM), olaparib (0, 0.1 and 1 μM) or both was monitored 6 days after treatment by cell counting after trypan blue labeling. (A) Percentage of living cells relative to non-treated condition (NT). (B) Percentage of dead cells. Data are expressed as mean+Sc.D. of at least 2 independent experiments. Dotted lines indicate the calculated cell survivals if additivity between AsiDNA and olaparib.
# Efficacy of AsiDNA (4.8 μM), veliparib (0, 10 and 50 μM) or both was monitored 6 days after treatment by trypan blue staining. (A) Percentage of living cells relative to non-treated condition (NT). (B) Percentage of dead cells. Dotted lines indicate the calculated cell survivals if additivity between AsiDNA and veliparib.
# The inventors monitored cell survival to combined treatment of 3 BC and 2 non-tumor cell lines with different sensitivities to Ola and AsiDNA alone (FIG. 6; Table 1). […] However, the combination remained more efficient or at least equal to the expected additive effect at all the tested doses. […] In contrast, the normal cells were insensitive to both, the combined and the single treatments with AsiDNA and Ola (FIG. 6; Table 1).
# MCF10A = assay: Cell survival, trypan blue counting; conditions: 4.80 μM of AsiDNA and/or 0.1 μM of Ola; day 6 after treatment
# Description: (§1) Cells were grown according to the supplier's instructions. Cell lines were maintained at 37° C. in a humidified atmosphere at 5% CO2.
# (§2) AsiDNA or PARPi cytotoxicity was measured by relative survival and cell death quantification. Adherent cells were seeded in 24-well culture plates at appropriate densities and incubated 24 hours at 37° C. before AsiDNA and/or PARPi addition. Cells were harvested day 6aftertreatment, stained with 0.4% trypan blue (Sigma Aldrich, Saint-Louis, USA) and counted with a Burker chamber. Cell survival was calculated as ratio of living treated cells to living mock-treated cells. Cell death was calculated as the number of dead cells on the total number of counted cells. Additivity of the toxicity was calculated by the product of cell survivals to AsiDNA and cell survivals to PARPi.
# SK28 Lsh DNA-PKcs = assay: Cell survival, trypan blue counting; conditions: 4.80 μM of AsiDNA and/or 0.1 μM of Ola; day 6 after treatment
# Description: as §1, §2
# MCF12A = assay: Cell survival, trypan blue counting; conditions: 4.80 μM of AsiDNA and/or 0.1 μM of Ola; day 6 after treatment
# Description: as §1, §2
# XRCC1 = assay: XRCC1-eYFP recruitment to laser damage sites in MDAMB231 cells; conditions: MDAMB231, 24 h of treatment with Ola (1 μM) and/or AsiDNA (16 μM)
# Description: FIG. 8: Olaparib inhibits XRCC1 recruitment to damage sites independently of AsiDNA. (A) Representative images of XRCC1-eYFP recruitment 40 secondes after laser damage and (B) kinetic of XRCC1-eYFP recruitment in MDAMB231 cells after 24 h of treatment with Ola (1 μM) and/or AsiDNA (16 μM). ns: not significant; ****: p<0.0001. These experiments were performed with a Leica SP5 confocal system, attached to a DMI6000 stand using a 63/1.4 objective, under a controlled environment (37° C., 5% CO2). All records were made using the appropriate sampling frequency (512_512 images, line average of four and zooming set to eight) and an argon laser line (514 nm for YFP) adapted to the fluorescent protein of interest. In the first step, two images were acquired within a period of 2-3 s at a laser energy setting sufficiently low not to induce any photodynamic damage. The 405-nm laser line (diode) was then set to maximum output for 100 ms and focused onto a single spot of constant size (176 nm) within the nucleus to cause a point of photo damage with a reproducible amount of energy. Recruitment of the protein of interest was then monitored by fluorescence using the same setting as for the pre-damage sequence. Laser damage was induced 24 h after treatment with AsiDNA (16 μM), olaparib (1 μM) or both. Images were captured at 2 s intervals for the following 52 s. […]
# HCT116 KU70^+/− = assay: Cell survival, trypan blue counting; conditions: 4.80 μM of AsiDNA and/or 0.1 μM of Ola; day 6 after treatment
# Description: as §1, §2
# HeLa CTL SX = assay: Cell survival, trypan blue counting; conditions: 4.80 μM of AsiDNA and/or 0.1 μM of Ola; day 6 after treatment
# Description: as §1, §2
# 53BP1 and Rad51 foci = 53BP1 and Rad51 foci immunostaining in MDAMB231 cells; conditions: MDAMB231, 24 h, 16 μM AsiDNA +/− 1 μM olaparib
# Description: FIG. 9: Effect of the combined treatment AsiDNA and olaparib on DNA repair. Representative images of γH2AX (red) and Rad51 or 53BP1 (green) foci in MDAMB231 (A) or MCF10 (C) cells treated 24 h with Ola and/or AsiDNA. (B, D) Numbering of 53BP1 and Rad51 foci in 100 MDAMB231 cells (B) or MCF10A cells (D) 24 h after Ola and/or AsiDNA treatment. Red bars represent the mean values. (E, F) DNA damage monitored by alkaline comet assay 24 h after Ola and/or AsiDNA treatment in MDAMB231 (E) or MCF10A (F) cells. ns: not significant; *: p<0.05; ****: p<0.0001.
# FIG. 10: AsiDNA inhibits irradiation-induced 53BP1 foci. Numbering of 53BP1 foci in 100 MDAMB231 cells 2 h after 10Gy irradiation, 22 h after prior treatment with AsiDNA and/or Ola. Red bars represent the mean values. *: p<0.05; **: p<0.01; ****: p<0.0001.
# For immunostaining, MDAMB231 cells are seeded on cover slips (Menzel, Braunschweig, Germany) at a concentration of 5×10^5 cells and incubated at 37° C. during 1 day. Cells are then treated with 16 μM AsiDNA+/−1 μM olaparib. 24 h after treatment, cells are fixed for 20 min in 4% paraformaldehyde/Phosphate-Buffered Saline (PBS 1×), permeabilized in 0.5% Triton X-100 for 10 min, blocked with 2% bovine serum albumin/PBS 1× and incubated with primary antibody for 1 h at 4° C. […]
smiles,measurement,setting,value
"O=C(c1cc(Cc2n[nH]c(=O)c3ccccc23)ccc1F)N1CCN(C(=O)C2CC2)CC1 [Olaparib, 4-[(3-[(4-cyclopropylcarbonyl)piperazin-4-yl]carbonyl)-4-fluorophenyl]methyl(2H)-phthalazin-1-one]",dose dependence of efficacy of single treatments,3 BC cell lines,dose dependent
same,Survival (%/NT),MCF10A,86.2 %/NT
same,Survival (%/NT),SK28 Lsh DNA-PKcs,80.9 %/NT
same,Survival (%/NT),MCF12A,88.5 %/NT
same,XRCC1 foci recruitment,XRCC1,significantly delayed
same,Survival (%/NT),HCT116 KU70^+/−,88.6 %/NT
same,Survival (%/NT),HeLa CTL SX,105.1 %/NT
same,"γH2AX, 53BP1 and Rad51 foci in the absence of DNA damaging treatment",53BP1 and Rad51 foci,induces the accumulation of DSBs
